Measurements as given in publication PMC12396291, “DNA-encoded library screening uncovers potent DNMT2 inhibitors targeting a cryptic allosteric binding site” (iScience, 2025).
Where “and” joins values, the source holds several entries; their conditions need not be identical. Identical values can stand only once. Entries after “also recorded” stand apart in the source; their conditions may differ. One block for each molecule: values may come before it.

Key:
MOLM-13 cells = experiment: Cell viability assay, doxorubicin co-treatment; format: cell-based; details: Homo sapiens; MOLM-13, doxorubicin 48 h; read-out: CC50 (only doxorubicin)
Method: Cell viability assays were conducted with MOLM-13 cells, Huh-7, MDA-MB-231, HEK293, and HCT MTase mutant cell lines (WT, knock-down DNMT2, and knock-down NSUN2) to investigate the DNMT2 inhibiting compounds’ cellular effect. Cells were cultured according to standard protocols: MOLM-13 (RPMI, 10% FBS, 1x Penicillin/Streptomycin, 37 °C, 5% CO2), Huh-7/MDA-MB-231/HEK293 (DMEM, 10% FBS, 1x Penicillin/Streptomycin, 37 °C, 5% CO2) and HCT (McCoys’s 5A Medium, 10% FBS, L-Glutamine, 1x Penicillin/Streptomycin, 37 °C, 5% CO2). Cell viability was assessed using Promega Cell Titer Glo assay kit (MOLM-13, Huh-7, MDA-MB-231, HEK293) or Lonza ViaLight Plus Cell Proliferation and Cytotoxicity BioAssay Kit (HCT cell lines). Briefly, 1000 cells were seeded in white Greiner half-area 96-well plates and incubated for 48 h with inhibitors/ligands from DMSO stocks (final: 0.1% DMSO) under standard cultivation conditions. Then, the cell titer reagent was added to each well according to the manufacturer’s protocols, and luminescence was measured using a Tecan Spark 10M plate reader (MOLM-13, Huh-7, MDA-MB-231, HEK293) or Molecular Devices FlexStation (HCT cell lines).

DNMT2Δ47 = biological target: T1, DNMT2Δ47 (Homo sapiens, UniProt O14717, DEL191-237); experiment: MST FTAD assay with deletion mutant; format: binding; details: DNMT2Δ47 2 μM, FTAD probe; read-out: affinity (MST KD) against DNMT2Δ47
T1 construct: His-tag; made in house; host or cells: E. coli (host printed only for the crystallization preparation)
T1 sequence (O14717 with tags, fused parts or gaps DEL191-237): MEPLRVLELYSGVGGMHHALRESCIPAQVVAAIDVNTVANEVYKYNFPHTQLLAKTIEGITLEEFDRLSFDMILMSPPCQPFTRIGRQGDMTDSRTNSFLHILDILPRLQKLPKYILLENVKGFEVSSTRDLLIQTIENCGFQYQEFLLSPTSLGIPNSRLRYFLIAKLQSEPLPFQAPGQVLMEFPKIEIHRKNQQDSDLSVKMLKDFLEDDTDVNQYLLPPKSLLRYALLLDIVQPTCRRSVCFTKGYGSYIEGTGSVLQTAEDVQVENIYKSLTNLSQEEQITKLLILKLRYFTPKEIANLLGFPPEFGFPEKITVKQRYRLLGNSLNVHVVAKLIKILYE
Method: (§1) Screening for ligand binding and evaluation of dose-response affinity profiles was performed via microscale thermophoresis (MST) as described previously.[42] The measurements were conducted with a Nanotemper Technologies Monolith NT.115 device. All samples were measured in Monolith standard capillaries at 25 °C. The acquisition mode was set to “Nano-Blue” with an excitation power of 30% and a medium MST power, while the system was controlled using the software MO.Control (version 1.6.1) and for evaluation MO.Affinity Analysis (version 2.3) was used. The samples contained 2 μM DNMT2, 100 nM FTAD (5-FAM-triazolyl-adenosyl-Dab) probe, and 1.3% DMSO in MST buffer (50 mM HEPES, 150 mM NaCl, 1 mM dithiothreitol (DTT), 0.1% PEG-8000, 0.05% polysorbate-20, pH 7.4).[42] All compounds were employed at a final concentration of 100 μM for the initial ligand screening.

DNMT2 [1] = biological target: T2, DNMT2 (Homo sapiens, UniProt O14717); experiment: ^3H-based methyltransferase enzyme activity assay (^3H-SAM incorporation into tRNA^Asp); format: biochemical
T2 construct: Recombinant human DNMT2 (full-length); His-tag; made in house; host or cells: E. coli
T2 sequence (O14717 1-391): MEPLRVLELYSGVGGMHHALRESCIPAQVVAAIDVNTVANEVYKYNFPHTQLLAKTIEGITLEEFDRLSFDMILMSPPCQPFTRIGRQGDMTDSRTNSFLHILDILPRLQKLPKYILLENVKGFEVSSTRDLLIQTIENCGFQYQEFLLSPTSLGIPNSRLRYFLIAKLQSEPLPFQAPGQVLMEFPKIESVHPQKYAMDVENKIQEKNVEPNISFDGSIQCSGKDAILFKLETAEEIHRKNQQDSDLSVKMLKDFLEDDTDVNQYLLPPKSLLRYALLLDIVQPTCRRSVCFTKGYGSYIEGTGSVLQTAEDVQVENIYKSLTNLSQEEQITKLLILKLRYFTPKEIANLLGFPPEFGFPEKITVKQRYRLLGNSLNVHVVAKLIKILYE
Method: Enzymatic DNMT2 inhibition assays were carried out in 100 mM Tris-HCl, pH 8.0, 100 mM NH4OAc, 0.1 mM EDTA, 10 mM MgCl2, and 10 mM DTT as described previously.[3]^,[4] First, the tRNA^Asp substrate was heated to 75 °C for 5 min and cooled down to room temperature (RT) before it was added to the reaction mixture to a final concentration of 5 μM. The reaction mixture contained 250 nM DNMT2 and the ligand compounds at variable concentrations (5% DMSO). Enzymatic reactions were started by the addition of 0.9 μM SAM as a mixture of ^3H-SAM (Hartmann Analytics) resp. cold SAM (NEB) to a final activity of 0.025 μCi μL^−1. Enzyme assays were carried out for 30 min at 37 °C. As a negative control served the reaction mixture without DNMT2 and as a positive control the reaction mixture without test compound. After 30 min, aliquots of 8 μL were taken from the reaction mixture and spotted on Whatman glass microfiber filters (GF/C, 25 mm). The RNA was precipitated on the filters with 5% ice-cold TCA for 15 min. […] Scintillation was measured with a scintillation counter (TriCarb Liquid Scintillation Analyzer 4810 TR; measurement time of 1 min). For IC50-value determination, compounds were analyzed at a minimum of six different concentrations in triplicates. IC50-values were calculated, evaluated, and plotted in GraphPad Prism 8.0.1.

DNMT2 [2] = biological target: T2, DNMT2; experiment: MST displacement assay with fluorescent FTAD probe; format: binding; design: Fnorm (MST screening): unit not given here
Method: as §1

DNMT2 [3] = biological target: T2, DNMT2; experiment: Isothermal titration calorimetry (ITC), direct titration; format: binding; details: direct titration at 25 °C; n.b. = no enthalpy signal observable
Method: (§2) The DNMT2 protein was purified via size exclusion chromatography eluting in isothermal titration calorimetry (ITC) buffer (50 mM sodium phosphate pH 8.0, 300 mM NaCl, 1 mM EDTA, 2 mM β-mercaptoethanol, 0.1% polysorbate-20) and directly used for measurements.[3] All compounds were dissolved in DMSO to a concentration of 5 mM and were then diluted in ITC buffer to a final concentration of 500 μM. DNMT2 was diluted to a final concentration of 50 μM with 10% DMSO to match the ligand stocks' DMSO concentration. For the ITC measurements, a MicroCal PEAQ-ITC Automated workstation (Malvern Panalytical) with a 200 μL Hastelloy cell and an injection syringe volume of 40 μL was used. All experiments were performed in triplicates at 25 °C unless otherwise noted. For each measurement, 19 compound injections (2 μL each) with an injection speed of 0.5 μL/s were added to the reaction cell containing DNMT2. The spacing time between sequential injections was 300 s, and the stirring speed was set to 750 rpm with a reference power of 42 μW. As control experiments, ligands were titrated into ITC buffer. Data analysis and fitting were carried out using the MicroCal PEAQ-ITC Analysis Software 1.21 and plotted in GraphPad Prism 8.0.1.

[4] = Parallel artificial membrane permeation assay (PAMPA); format: in vitro ADME; details: 7 h incubation, duplicates
Method: To determine the passive permeability of selected DNMT2 ligands, a parallel artificial membrane permeation assay (PAMPA) was performed as described previously.[68] The experiment was performed in duplicates with Sigma-Aldrich MAIPNTR10 donor plates with 5 μL of an artificial membrane (1% w/v L-α-phosphatidylcholine in n-dodecane) per well. After incubation for 7 h, the acceptor solutions were evaluated by LC/MS (HP Agilent 1100 Series). The peak areas in the UV chromatogram (λ = 210 nm) were used to calculate the areas under the curve (AUCs).

DNMT2 [5] = biological target: T2, DNMT2; experiment: Affinity selection-mass spectrometry (AS-MS); format: binding; details: 5 μM DNMT2, label-free
Method: Orthogonal KD-value determination for compound 3 was conducted by an affinity selection-mass spectrometry (AS-MS) assay according to Prudent et al.[43] and Simon et al.[67] Compound 3 was dissolved in DMSO (20 mM) and a dilution series in Tris buffer (25 mM Tris, 100 mM NaCl, pH 7.5) was prepared to give final ligand concentrations of 100 μM, 50 μM, 25 μM, 12.5 μM, 6.25 μM, 3.12 μM, 1.56 μM, and 0 μM. DNMT2 was diluted in Tris buffer (130 μM) and added to the dilution series to give a final concentration of 5 μM DNMT2. Zeba Spin Desalting columns 7K MWCO were used for the affinity-based separation. These columns were centrifuged at 2000g for 1 min to remove the storage buffer. 20 μL of the prepared samples were loaded to the columns, and the protein-ligand complex was eluted by centrifugation at 2000g for 2 min. The centrifuged solutions were diluted with 10 μL ACN and analyzed by LC/MS with an Agilent 1100 Series HPLC system. The data evaluation and subsequent binding affinity determination were performed with MestReNova (version 14.0.1) and GraphPad Prism 8.0.1.

DNMT2 in MOLM-13 cells = biological target: T3, DNMT2 in MOLM-13 cells (Homo sapiens, UniProt O14717); experiment: Cellular thermal shift assay (CETSA); format: cell-based; details: MOLM-13, 50 μM, 16 h
T3 construct: engages DNMT2 in the MOLM-13 cellular environment, we performed cellular thermal shift assays (CETSA); endogenous in cells; host or cells: MOLM-13
T3 sequence (O14717 1-391): T2 sequence (O14717 1-391)
Method: After incubation for 16 h (37 °C, 5% CO2), the cell suspensions were collected. The cells were washed twice and then counted, followed by the addition of 1 mL PBS. The cell suspension was divided into eight parts, and then heated for 4 min at various temperatures (40, 43, 46, 49, 52, 55, 58 °C) in a PCR thermocycler. The cells were lysed through a freeze-thaw process using liquid nitrogen. The supernatant solutions were used for immunoblotting analysis. […] Proteins were separated by SDS−PAGE on 4–20% Criterion TGX Precast Protein Gels (Bio-Rad) and transferred to Amersham Protean 0.45 μm nitrocellulose membrane (Cytiva) using semi-dry transfer (25 V, 1 A, Towbin buffer). […] Subsequently, the membrane was incubated for 3 h at RT with IRDye 680RD Goat anti-Rabbit (1:1000, LICOR, 926–68071). Protein bands were visualized using a GE Healthcare Typhoon Trio biomolecular scanner, with laser excitation at 637 nm and fluorescence detection at 670 nm. The ImageLab software (Bio-Rad) was used for band quantification.

DNMT2-NonO interaction = biological target: T4, DNMT2-NonO interaction (Homo sapiens, UniProt O14717); experiment: Pull-down competition assay; format: binding; details: 100 μM SFG, 100 μM 16 or 10 μM tRNA^Asp
T4 construct: Recombinant human DNMT2 (full-length); host or cells: E. coli (DNMT2)
T4 sequence (O14717 1-391): T2 sequence (O14717 1-391)
T4 sequence (Q15233 1-471 partner): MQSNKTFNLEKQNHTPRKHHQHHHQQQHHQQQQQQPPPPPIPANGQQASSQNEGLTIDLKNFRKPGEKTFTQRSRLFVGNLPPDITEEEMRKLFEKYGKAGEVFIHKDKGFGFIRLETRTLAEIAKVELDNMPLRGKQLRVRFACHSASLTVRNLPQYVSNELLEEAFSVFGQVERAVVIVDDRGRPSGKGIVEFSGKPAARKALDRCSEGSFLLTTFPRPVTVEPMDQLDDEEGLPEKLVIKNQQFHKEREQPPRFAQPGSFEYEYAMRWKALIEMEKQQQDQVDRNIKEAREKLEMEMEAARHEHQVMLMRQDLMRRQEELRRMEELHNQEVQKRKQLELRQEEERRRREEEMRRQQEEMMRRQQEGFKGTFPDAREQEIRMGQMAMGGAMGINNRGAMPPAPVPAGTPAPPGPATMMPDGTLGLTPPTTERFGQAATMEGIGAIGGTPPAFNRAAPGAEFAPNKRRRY
Method: (§3) For immobilization on streptavidin beads, DNMT2 was biotinylated using the EZ-Link Sulfo-NHS-LC-Biotinylation kit. A 20-fold excess of Sulfo-NHS-LC-Biotin (10 mM in water) was added to DNMT2 and incubated for 2 h on ice. […] The biotinylation level was estimated using a HABA assay included in the kit according to the manufacturer’s protocols.
(§4) For in vitro pull-down assays, biotinylated DNMT2 was immobilized on streptavidin-coated paramagnetic beads (GenScript Streptavidin MagBeads). For this, beads were washed with PBS buffer containing 0.05% Triton X-100, and subsequently, DNMT2 (30 μg per 50 μL beads) was immobilized for 45 min at RT. As a negative control, beads were treated with a protein-free buffered solution. Beads were washed with PBS buffer, and for each sample, 5 μL beads were added to either 1.5 μg of recombinant NonO protein (Active Motif) or 3.0 μg of recombinant eIF4E protein (Cayman). Beads were incubated for 1 h at RT, and subsequently, the supernatant was removed. […] The samples were incubated for 45 min at RT, and the supernatant was treated with 2 μL 5× Laemmli buffer. […] All samples were heated to 95 °C for 10 min and analyzed via SDS-PAGE. […] Protein bands were visualized using a GE Healthcare Typhoon Trio biomolecular scanner, with laser excitation at 488 nm and fluorescence detection at 580 nm.

DNMT2-eIF4E interaction = biological target: T5, DNMT2-eIF4E interaction (Homo sapiens, UniProt O14717); experiment: Pull-down competition assay; format: binding; details: 100 μM sinefungin, 100 μM 16 or 10 μM tRNA^Asp
T5 construct: Recombinant human DNMT2 (full-length); host or cells: E. coli (DNMT2)
T5 sequence (P06730 whole entry partner, one chain of several): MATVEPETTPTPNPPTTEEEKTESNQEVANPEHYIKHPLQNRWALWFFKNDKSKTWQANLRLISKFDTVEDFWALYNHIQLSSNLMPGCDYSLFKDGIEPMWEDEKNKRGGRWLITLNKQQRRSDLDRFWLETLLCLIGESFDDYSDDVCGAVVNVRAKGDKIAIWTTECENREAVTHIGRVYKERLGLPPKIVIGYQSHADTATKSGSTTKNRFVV
Method: as §3, §4

[6] = ATP-quantifying cell viability assay, 48 h; format: cell-based; details: human, MOLM-13, HCT, Huh-7, MDA-MB-231 and HEK293 cells, all cell lines
[7] = Solubility remark from ITC titration; format: physicochemical; details: ITC buffer, remark in words
Method: as §2

SMILES: COc1cccc2c1C(=O)c1c(O)c3c(c(O)c1C2=O)C[C@@](O)(C(=O)CO)C[C@@H]3O[C@H]1C[C@H](N)[C@H](O)[C@H](C)O1 [doxorubicin]
CC50 (MOLM-13 cells): 0.045 ± 0.003 µM

SMILES: Nc1ncn([C@@H]2O[C@H](CO)[C@@H](O)[C@H]2O)c(=O)n1 [azacitidine]
CC50 at 48 h [6]: < 10 µM

SMILES: CNC(=O)[C@@H](Nc1nc(N2CCN(c3c(C)cccc3C)CC2)nc(N(C)c2cccc(C)c2)n1)[C@@H](C)OC(C)(C)C [Compound 2]
solubility [7]: low solubility

Further lines, with some results ahead:

Kd (DNMT2Δ47): 102 µM
IC50 (DNMT2 [1]): 38.9 ± 6.9 µM
FTAD displacement in the MST assay (DNMT2 [2]; DEL hits, result in words): quantitative FTAD displacement
Kd (DNMT2 [2]; FTAD probe 100 nM, 2 μM DNMT2, n.b. = no thermophoresis shift observable): 48 µM and 48.2 µM
Fnorm (% displ.): FTAD displacement (DNMT2 [2]; ligand 100 μM, FTAD probe): 53%
Fnorm (MST screening) (DNMT2 [2]; ligand 100 μM, FTAD probe): 912.1
Kd (DNMT2 [3]): 5.3 µM and 5.31 µM
Kd (DNMT2 [5]): 8.4 ± 2.2 µM
thermal stabilization of DNMT2 (CETSA) (DNMT2 in MOLM-13 cells): no thermal stabilization occurred
SMILES: CCc1ccc(C(=O)NCC2(C(=O)NC(CC(=O)NCC(=O)NC)Cc3c[nH]c4ccccc34)CC2)cc1 (stereo not drawn) [Compound 3]
Papp (PAMPA) [4]: failed to pass through the artificial membrane; also recorded: below detection limit

displacement of NonO from immobilized DNMT2 (DNMT2-NonO interaction): NonO could not be displaced
SMILES: Nc1ncnc2c1ncn2[C@@H]1O[C@H](C[C@@H](N)CC[C@H](N)C(=O)O)[C@@H](O)[C@H]1O [sinefungin]
displacement of eIF4E from immobilized DNMT2 (DNMT2-eIF4E interaction): neither NonO nor eIF4E could be displaced
